Measured values: patent publication US8193167B2, “Pharmacologically active agents containing esterified phosphonates and methods for use thereof” (priority 2004, dated 2012)
Counter-ions that a name gives are not always drawn. Like-named read-outs stand apart in the source and are kept apart here.

How the values were obtained:
Vaccinia Copenhagen = assay: microbe, parasite or virus in culture; assay type: cell-based, vaccinia virus (VV); conditions: read-out: Vaccinia Copenhagen EC50
MCMV strain Smith = assay: Plaque reduction assay for antiviral activity, MCMV in MEF cells; assay type: cell-based; conditions: read-out: MCMV EC50
Cowpox Brighton = assay: microbe, parasite or virus in culture; assay type: cell-based, cowpox virus (CV); conditions: read-out: Cowpox Brighton EC50
HCMV strain AD-169 = assay: Plaque reduction assay for antiviral activity, HCMV in HFF cells; assay type: cell-based; conditions: read-out: HCMV EC50
[1] = tested on: human foreskin fibroblast (HFF) cells
in vitro = conditions: human
[2] = HFF cells, 8-day incubation, value without SD = single determination

SMILES	EC50 (Vaccinia Copenhagen)	EC50 (MCMV strain Smith; MEF cells, 7-day incubation)	EC50 (Cowpox Brighton)	EC50 (HCMV strain AD-169; [2])	CC50 [1]	other results
CCCCCCCCCCCCCCCCCCCCOP(=O)(O)CO[C@H](CO)Cn1ccc(N)nc1=O [EC-CDV, Eicosyl Cidofovir, Sodium Salt]	1600 ± 1300 nM	5 nM	1500 ± 900 nM	0.7 nM		
CCCCCCCCCCCCCCCCOP1(=O)COC(Cn2ccc(N)nc2=O)CO1 (mixture of isomers) [HD-cCDV, Hexadecyl Cyclic Cidofovir]		130 ± 10 nM		3100 ± 2350 nM	83000 ± 20000 nM	
CCCCCCCCCCCCCCCCCCCCCCCCOP(=O)(O)CO[C@H](CO)Cn1ccc(N)nc1=O [TC-CDV, Tetracosyl Cidofovir, Sodium Salt]	> 17000 nM	7450 ± 640 nM	> 20000 nM	6 nM	> 100000 nM	
CCCCCCCCOP(=O)(O)CO[C@H](CO)Cn1ccc(N)nc1=O [O-CDV, Octyl Cidofovir, Sodium Salt]	> 20000 nM	> 10000 nM	> 20000 nM	5250 ± 5700 nM	> 100000 nM	
Nc1ccn(C[C@@H](CO)OCP(=O)(O)O)c(=O)n1 [CDV, Cidofovir, reference compound]						EC50 (Vaccinia Copenhagen; Orthopoxvirus vaccinia, HFF): 31000 ± 5400 nM; EC50 (MCMV strain Smith; MEF, 168 h): 40 ± 30 nM; CC50 (in vitro): > 317000 nM; EC50 (Cowpox Brighton; Cowpox virus, HFF): 42000 ± 5400 nM; EC50 (HCMV strain AD-169; Human betaherpesvirus 5, AD169, HFF, 192 h): 1200 ± 430 nM
CCCCCCCCCCCCCCCCCCCCCCOP1(=O)COC(Cn2ccc(N)nc2=O)CO1 (mixture of isomers) [DC-cCDV, Docosyl Cyclic Cidofovir]		2800 ± 1700 nM		32 nM	> 100000 nM	
Nc1ccn(C[C@H]2COP(=O)(O)CO2)c(=O)n1 [cCDV, Cyclic Cidofovir, reference compound]						EC50 (MCMV strain Smith; 168 h, MEF cells, 7-day incubation): 230 ± 70 nM; CC50 (in vitro): > 331000 nM; EC50 (HCMV strain AD-169; Human betaherpesvirus 5, AD169, 192 h, HFF cells, 8-day incubation, value without SD = single determination): 3100 ± 1800 nM
CCCCCCCCCCCCCCCCCCCCCCOP(=O)(O)COC(CO)Cn1ccc(N)nc1=O (centres unmarked) [DC-CDV, Docosyl Cidofovir, Sodium Salt]		850 ± 7 nM		4 nM	79600 nM	
CCCCCCCCCCCCCCCCOP(=O)(O)COC(CO)Cn1ccc(N)nc1=O (centres unmarked) [HD-CDV, Hexadecyl Cidofovir, Sodium Salt]	3100 ± 100 nM	20 nM	6000 ± 2000 nM	5 nM	> 157000 nM	
CCCCCCCCCCCCCCCCCCCCOP1(=O)CO[C@@H](Cn2ccc(N)nc2=O)CO1 (some centres unmarked) [EC-cCDV, Eicosyl Cyclic Cidofovir]		230 ± 10 nM		11 nM	86100 nM	
CCCCCCCCCCCCOP(=O)(O)CO[C@H](CO)Cn1ccc(N)nc1=O [DD-CDV, Dodecyl Cidofovir, Sodium Salt]	> 20000 nM	> 10000 nM	> 20000 nM	310 ± 190 nM	> 100000 nM	
CCCCCCCCCCCCCCCCCCCCCCCCOP1(=O)CO[C@@H](Cn2ccc(N)nc2=O)CO1 (some centres unmarked) [TC-cCDV, Tetracosyl Cyclic Cidofovir]		2300 ± 1300 nM		320 nM	> 100000 nM	
